{
  "source": "patent US20230219898A1",
  "about": "“COMPOUNDS AND METHODS FOR BLOCKING APOPTOSIS AND INDUCING AUTOPHAGY” (President and Fellows of Harvard College, priority 2020, published 2023)",
  "key": {"[1]": {"assay": "Pharmacokinetic (DMPK) study of Apt-1, intracerebroventricular micro-osmotic pump", "assay_type": "in vivo, mice", "conditions": "mouse, hippocampus, ICV pump 20 mM Apt-1, 0.25 μl/h", "description": "Apt-1 was delivered using intracerebroventricular Alzet micro-osmotic pump (20 mM Apt-1, […], release rate: […]). CSF was collected at 1 h, 6 h, and 24 h. Hippocampi were collected at 24 h. The concentrations of Apt-1 were measured by HPLC. The concentration of Apt-1 in hippocampus at 24 h was 6.27 μM. Mean ±s.e.m. (n=3 mice in each group).\nWT mice (2 months old) were deeply anesthetized with isoflurane and immobilized in a stereotaxic frame using predetermined coordinates under aseptic conditions. All animals were observed during and after surgery, and an analgesic was administered after surgery. Apt-1 (20 mM, 100 μl, release rate: 0.25 μl/h) was delivered intracerebroventricularly via an ALZET micro-osmotic pump (ALZET Model 1002) and ALZET brain infusion kits into lateral ventricles (ML, −1.0 mm; AP, −0.5 mm; DV, 2.0 mm). The ALZET micro-osmotic pumps were fixed on the skulls of the mice by instant adhesive and the skin incision was closed by suture. At 1 h, 6 h and 24 h after the onset of delivery, cerebrospinal fluid (CSF) was carefully withdrawn by a Hamilton syringe from lateral ventricles (ML, −1.0 mm; AP, −0.5 mm; DV, 2.0 mm) for DMPK analysis. The mice were sacrificed at 24 h and the hippocampi were dissected for DMPK analysis. […] The concentrations of Apt-1 in collected samples were measured by HPLC as a custom service by the Scripps Research Institute Florida."}, "[2]": {"test_system": "Human Jurkat cells", "assay": "Velcade-induced apoptosis of Jurkat cells, CellTiter-Glo viability", "assay_type": "cell-based", "description": "Human Jurkat cells were seeded in 96-well plates (20000 cells per well). Different concentrations of the compounds were added one hour prior to Velcade treatment, followed by the addition of 50 nM Velcade. After incubation for 24 hours, cell viability was measured by CellTiter-Glo Luminescent Cell Viability Assay.\nThe rates of cell death were measured in triplicate or quadruplicate in a 96-well or 384-well plate by using SYTOX Green Nucleic Acid Stain (Invitrogen) or ToxiLight Non-destructive Cytotoxicity BioAssay Kit (Lonza). The intensity of luminescence was determined in an EnSpire Multimode Plate Reader (PerkinElmer). Cytotoxicity is expressed as percentages of cell death per well after deducting the background signal in non-induced cells and compared to that of the maximal cell death with 100% Lysis Reagent. The rates of cell viability were determined by using CellTiter-Glo Luminescent Cell Viability Assay (Promega) following the manufacturer's protocol and the results are expressed as percentages of luminescence intensity per well after deducting the background signal in blank well and compared to that of the viability in the non-treated wells. Concentration of drugs used for inducing or inhibiting cell death, mTNFα: 1 ng/ml; 5Z-7-Oxozeaenol: 0.5 μM; Velcade: 50 nM; Apt-1/ICCB-19/ICCB-19i/Nec-1s: 10 μM."}, "[3]": {"molecular_target": "T1, GST-TRADD (Homo sapiens, UniProt Q15628)", "T1 construct": "cDNA encoding GST-tagged hTRADD (Full length or aa180-312); made in house; host or cells: HEK293T (pEBG plasmid)", "T1 sequence (Q15628 whole entry, the tested form may be a part)": "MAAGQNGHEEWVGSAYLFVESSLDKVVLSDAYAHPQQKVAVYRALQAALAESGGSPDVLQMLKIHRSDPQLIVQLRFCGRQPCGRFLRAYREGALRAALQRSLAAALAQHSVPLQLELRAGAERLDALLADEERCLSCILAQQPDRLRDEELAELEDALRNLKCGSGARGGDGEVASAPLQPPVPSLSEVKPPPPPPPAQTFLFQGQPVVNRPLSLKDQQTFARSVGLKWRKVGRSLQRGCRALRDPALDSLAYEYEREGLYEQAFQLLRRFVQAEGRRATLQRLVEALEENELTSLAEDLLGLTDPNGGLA", "assay": "Thermal shift assay with GST-TRADD", "assay_type": "binding", "conditions": "GST-TRADD 50 μM, compound 250 μM", "text": "Thermal unfolding of GST-TRADD is monitored using SYPRO Orange. Data were collected in the presence of ICCB-19 and Apt-1, leading to a rightward shift in the unfolding transition. The apparent melting temperature (Tm) is the peak in the derivative of the unfolding curve (dF/dT), which is used as an indicator of thermal stability.\nFull-length cDNAs for mouse/human TRADD were PCR-amplified from the plasmid library and cloned into pcDNA3.1 using Phanta Max Super-Fidelity DNA Polymerase (Vazyme Biotech Co., Ltd) with appropriate tags. Mutant hTRADD were generated using MutExpress II mutagenesis kit (Vazyme Biotech Co., Ltd). […]\nTo determine stability, purified proteins were made to a final concentration of 1 μg/l. […] The reaction was run from 25C, ramping up in increments of 0.05° C./s to a final temperature of 95C with fluorescence detection throughout the experiment to generate a dataset. Melting temperature of the protein (Tm) was determined by performing non-linear fitting of the dataset to a Boltzmann Sigmoidal curve in GraphPad Prism with the following equation: Y=Bottom+(Top-Bottom)/[1+exp(Tm-X/Slope)], where Y=fluorescence emission in arbitrary units; X=temperature; Bottom=baseline fluorescence at low temperature; Top=maximal fluorescence at top of the dataset; Slope=describes the steepness of the curve, with larger values denoting shallower curves."}, "[4]": {"conditions": "FIG. 5b, Velcade 50 nM, 24 h, read-out: IC50 of inhibition of Velcade-induced apoptosis"}, "[5]": {"conditions": "Table 3, 50 nM Velcade, 24 hours, read-out: Jurkat Velcade IC50/μM"}},
  "note": "Like-named read-outs stand apart in the source and are kept apart here.",
  "data": [
    {"compound": "CN1CCN=C1SC(C(=O)NC1CCCCCC1)c1ccccc1", "note": "(centres unmarked) [Compound 30]", "values": [
      {"measurement": "concentration at 24 h", "setting": "[1]", "result": 6.27, "unit": "µM"},
      {"measurement": "IC50", "setting": "[2]; [4]", "result": "~1", "unit": "µM"},
      {"measurement": "IC50", "setting": "[2]; [5]", "result": 0.799, "unit": "µM"},
      {"measurement": "increase of Tm of GST-TRADD", "setting": "[3]", "result": 3.7, "unit": "°C"}
    ]},
    {"compound": "O=C(CSC1=NCCN1)NC1CCCCCC1", "note": "[ICCB-19]", "values": [
      {"measurement": "IC50", "setting": "[2]; [4]", "result": "~1", "unit": "µM"},
      {"measurement": "IC50", "setting": "[2]; Table 1, 50 nM Velcade, 24 hours, read-out: Apoptosis of Jurkat cells induced by Velcade (IC50 μM)", "result": 1.1, "unit": "µM"},
      {"measurement": "IC50", "setting": "[2]; [5]", "result": 1.12, "unit": "µM"},
      {"measurement": "increase of Tm of GST-TRADD", "setting": "[3]", "result": 3.2, "unit": "°C"}
    ]}
  ]
}
